Measured values taken from patent publication US20220281848A1, “PYRAZOLE-SUBSTITUTED PYRROLIDINONES AS HERBICIDES” (FMC Corporation, priority 2019, published 2022).

Test system: plants
Assay: Test D pre-emergence, other plants of Tables D1 and D3
Format: in vivo
Settings: preemergent, 20 DAA
Protocol: A formulation containing 50 g/L of the test chemical was prepared by dissolving the active ingredient in a mixture of organic solvents and emulsifier, details of which are provided in the table. This formulation was then mixed with a small, variable amount of acetone to aid dissolution, before addition of a 0.2% v/v aqueous solution of an adjuvant, as the aqueous diluent, to form an aqueous spray solution which contains a predetermined concentration of the active ingredient.
This aqueous spray solution was then sprayed onto plants including maize and wheat that had been seed treated with a herbicide safener, after one day's cultivation (for pre-emergence) or after about 12 days' cultivation (for post-emergence). The plants were grown from seeds sown in standard soil, placed in a glasshouse under controlled conditions (at 24/18° C. or 20/16° C., day/night; 16 h light; 65% humidity). After spray application the plants were then grown in a glasshouse under the same conditions and watered twice daily. After 15 d for post-emergence and 20 DAA for pre-emergence the test was evaluated (100=total damage to plant; 0=no damage to plant).

## CN1CC(c2cc(C(F)(F)F)n(C)n2)C(C(=O)Nc2ccc(F)cc2F)C1=O (racemic) [Compound 6]
Rate 15
  damage to plant (100=total damage to plant; 0=no damage to plant), ABUTH: 0
  damage to plant (100=total damage to plant; 0=no damage to plant), AMARE: 0
  damage to plant (100=total damage to plant; 0=no damage to plant), BIDPI: 0
  damage to plant (100=total damage to plant; 0=no damage to plant), BRAPL: 0
  damage to plant (100=total damage to plant; 0=no damage to plant), CYPES: 0
  damage to plant (100=total damage to plant; 0=no damage to plant), DIGSA: 0
  damage to plant (100=total damage to plant; 0=no damage to plant), ECHCG: 0
  damage to plant (100=total damage to plant; 0=no damage to plant), ELEIN: 0
  damage to plant (100=total damage to plant; 0=no damage to plant), EPHHL: 0
  damage to plant (100=total damage to plant; 0=no damage to plant), GLXMA: 0
  damage to plant (100=total damage to plant; 0=no damage to plant), IPOHE: 0
  damage to plant (100=total damage to plant; 0=no damage to plant), ORYSA: 0
  damage to plant (100=total damage to plant; 0=no damage to plant), PANMI: 0
  damage to plant (100=total damage to plant; 0=no damage to plant), SETFA: 0
  damage to plant (100=total damage to plant; 0=no damage to plant), SORVU: 0
Rate 30
  damage to plant (100=total damage to plant; 0=no damage to plant), ABUTH: 0
  damage to plant (100=total damage to plant; 0=no damage to plant), AMARE: 0
  damage to plant (100=total damage to plant; 0=no damage to plant), BIDPI: 0
  damage to plant (100=total damage to plant; 0=no damage to plant), BRAPL: 50
  damage to plant (100=total damage to plant; 0=no damage to plant), CYPES: 0
  damage to plant (100=total damage to plant; 0=no damage to plant), DIGSA: 30
  damage to plant (100=total damage to plant; 0=no damage to plant), ECHCG: 20
  damage to plant (100=total damage to plant; 0=no damage to plant), ELEIN: 0
  damage to plant (100=total damage to plant; 0=no damage to plant), EPHHL: 0
  damage to plant (100=total damage to plant; 0=no damage to plant), GLXMA: 0
  damage to plant (100=total damage to plant; 0=no damage to plant), IPOHE: 0
  damage to plant (100=total damage to plant; 0=no damage to plant), ORYSA: 0
  damage to plant (100=total damage to plant; 0=no damage to plant), PANMI: 0
  damage to plant (100=total damage to plant; 0=no damage to plant), SETFA: 0
  damage to plant (100=total damage to plant; 0=no damage to plant), SORVU: 0
Rate 60
  damage to plant (100=total damage to plant; 0=no damage to plant), ABUTH: 0
  damage to plant (100=total damage to plant; 0=no damage to plant), AMARE: 0
  damage to plant (100=total damage to plant; 0=no damage to plant), BIDPI: 0
  damage to plant (100=total damage to plant; 0=no damage to plant), BRAPL: 60
  damage to plant (100=total damage to plant; 0=no damage to plant), CYPES: 0
  damage to plant (100=total damage to plant; 0=no damage to plant), DIGSA: 90
  damage to plant (100=total damage to plant; 0=no damage to plant), ECHCG: 20
  damage to plant (100=total damage to plant; 0=no damage to plant), ELEIN: 0
  damage to plant (100=total damage to plant; 0=no damage to plant), EPHHL: 0
  damage to plant (100=total damage to plant; 0=no damage to plant), GLXMA: 0
  damage to plant (100=total damage to plant; 0=no damage to plant), IPOHE: 0
  damage to plant (100=total damage to plant; 0=no damage to plant), ORYSA: 0
  damage to plant (100=total damage to plant; 0=no damage to plant), PANMI: 0
  damage to plant (100=total damage to plant; 0=no damage to plant), SETFA: 10
  damage to plant (100=total damage to plant; 0=no damage to plant), SORVU: 0
Rate 130
  damage to plant (100=total damage to plant; 0=no damage to plant), ABUTH: 0
  damage to plant (100=total damage to plant; 0=no damage to plant), AMARE: 0
  damage to plant (100=total damage to plant; 0=no damage to plant), BIDPI: 0
  damage to plant (100=total damage to plant; 0=no damage to plant), BRAPL: 80
  damage to plant (100=total damage to plant; 0=no damage to plant), CYPES: 0
  damage to plant (100=total damage to plant; 0=no damage to plant), DIGSA: 90
  damage to plant (100=total damage to plant; 0=no damage to plant), ECHCG: 80
  damage to plant (100=total damage to plant; 0=no damage to plant), ELEIN: 0
  damage to plant (100=total damage to plant; 0=no damage to plant), EPHHL: 0
  damage to plant (100=total damage to plant; 0=no damage to plant), GLXMA: 0
  damage to plant (100=total damage to plant; 0=no damage to plant), IPOHE: 0
  damage to plant (100=total damage to plant; 0=no damage to plant), ORYSA: 0
  damage to plant (100=total damage to plant; 0=no damage to plant), PANMI: 0
  damage to plant (100=total damage to plant; 0=no damage to plant), SETFA: 80
  damage to plant (100=total damage to plant; 0=no damage to plant), SORVU: 0
Rate 250
  damage to plant (100=total damage to plant; 0=no damage to plant), ABUTH: 0
  damage to plant (100=total damage to plant; 0=no damage to plant), AMARE: 0
  damage to plant (100=total damage to plant; 0=no damage to plant), BIDPI: 0
  damage to plant (100=total damage to plant; 0=no damage to plant), BRAPL: 80
  damage to plant (100=total damage to plant; 0=no damage to plant), CYPES: 10
  damage to plant (100=total damage to plant; 0=no damage to plant), DIGSA: 90
  damage to plant (100=total damage to plant; 0=no damage to plant), ECHCG: 90
  damage to plant (100=total damage to plant; 0=no damage to plant), ELEIN: 0
  damage to plant (100=total damage to plant; 0=no damage to plant), EPHHL: 0
  damage to plant (100=total damage to plant; 0=no damage to plant), GLXMA: 0
  damage to plant (100=total damage to plant; 0=no damage to plant), IPOHE: 0
  damage to plant (100=total damage to plant; 0=no damage to plant), ORYSA: 0
  damage to plant (100=total damage to plant; 0=no damage to plant), PANMI: 0
  damage to plant (100=total damage to plant; 0=no damage to plant), SETFA: 90
  damage to plant (100=total damage to plant; 0=no damage to plant), SORVU: 0
Rate 500
  damage to plant (100=total damage to plant; 0=no damage to plant), ABUTH: 0
  damage to plant (100=total damage to plant; 0=no damage to plant), AMARE: 0
  damage to plant (100=total damage to plant; 0=no damage to plant), BIDPI: 0
  damage to plant (100=total damage to plant; 0=no damage to plant), BRAPL: 90
  damage to plant (100=total damage to plant; 0=no damage to plant), CYPES: 80
  damage to plant (100=total damage to plant; 0=no damage to plant), DIGSA: 100
  damage to plant (100=total damage to plant; 0=no damage to plant), ECHCG: 100
  damage to plant (100=total damage to plant; 0=no damage to plant), ELEIN: 0
  damage to plant (100=total damage to plant; 0=no damage to plant), EPHHL: 0
  damage to plant (100=total damage to plant; 0=no damage to plant), GLXMA: 0
  damage to plant (100=total damage to plant; 0=no damage to plant), IPOHE: 0
  damage to plant (100=total damage to plant; 0=no damage to plant), ORYSA: 0
  damage to plant (100=total damage to plant; 0=no damage to plant), PANMI: 0
  damage to plant (100=total damage to plant; 0=no damage to plant), SETFA: 90
  damage to plant (100=total damage to plant; 0=no damage to plant), SORVU: 0
